The assay addresses T1, human APJ receptor (Homo sapiens, UniProt P35414).
T1 construct: expressed in transfected cells
T1 sequence (P35414 1-380): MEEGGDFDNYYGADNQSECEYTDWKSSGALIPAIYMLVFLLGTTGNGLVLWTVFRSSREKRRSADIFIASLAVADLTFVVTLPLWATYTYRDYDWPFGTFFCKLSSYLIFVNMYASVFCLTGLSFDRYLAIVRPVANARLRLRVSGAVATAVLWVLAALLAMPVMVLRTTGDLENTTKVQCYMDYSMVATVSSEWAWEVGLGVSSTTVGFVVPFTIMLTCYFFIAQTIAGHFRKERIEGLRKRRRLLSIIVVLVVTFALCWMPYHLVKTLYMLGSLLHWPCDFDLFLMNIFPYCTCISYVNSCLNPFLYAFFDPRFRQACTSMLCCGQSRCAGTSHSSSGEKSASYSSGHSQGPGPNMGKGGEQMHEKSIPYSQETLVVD
Briefly: Intracellular cAMP accumulation assay (APJ hcAMP, HTRF). The assay is classed as cell-based. The essentials: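 HEK293 cells stably expressing human APJ, 5,000/well, incubated 30 min at room temperature with compound plus […] and 2 μM forskolin. cAMP read by HTRF against a cAMP standard curve; EC50 from variable-slope sigmoidal fit, Ymax as % of (Pyr1)apelin-13 inhibition.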
A general note: cAMP levels reflect the balance of adenylyl cyclase and phosphodiesterase activity.

The mark [1] stands for this setting: Table 1, HEK293 cells stably expressing human APJ receptor, inhibition of forskolin-mediated cAMP production, read-out: APJ hcAMP EC50.
Where [2] appears, read: Table 3, HEK293 cells stably expressing human APJ receptor, read-out: APJ cAMP Human EC50.
The mark [3] stands for this setting: human APJ, cAMP, potency range class, read-out: APJ cAMP Human EC50.
The mark [4] stands for this setting: Table 2, HEK293 cells stably expressing human APJ receptor, read-out: APJ cAMP Human EC50.

This passage reports EC50 results from patent US11498903B2 (BRISTOL-MYERS SQUIBB COMPANY, priority 2017, dated 2022).

Read-outs that look alike come from different tables or passages of the source. Some results are limits rather than exact numbers.

The EC50 is the midpoint of the concentration-response curve.

With `CCC[C@@H](NC(=O)c1ccc(-c2c(Cl)cccc2-c2nc3ccccc3[nH]2)c(C(=O)O)c1)c1ccccc1` (atropisomer, axis not shown) [Example 81, (S)-2′-(1H-benzo[d]imidazol-2-yl)-6′-chloro-4-(((R)-1-phenylbutyl)carbamoyl)-[1,1′-biphenyl]-2-carboxylic acid], the half-maximal effective concentration (EC50) runs as follows: under setting [1], under 10 nM; under setting [2], under 10 nM.

As to `COc1ccc(CNC(=O)c2ccc(-c3c(Cl)cccc3-c3nc4cc(F)c(OC)cc4[nH]3)c(C(=O)O)c2)cc1` [Example 115, (S)-2′-chloro-6′-(5-fluoro-6-methoxy-1H-1,3-benzodiazol-2-yl)-4-{[(4-methoxyphenyl)methyl]carbamoyl}-[1,1′-biphenyl}-2-carboxylic acid], under setting [2], the EC50 lay in the range of 10 to 100 nM.

On to `CCCC(NC(=O)c1ccc(-c2c(Cl)cccc2-c2nc3cc(OC)c(F)cc3[nH]2)c(C(=O)O)c1)C1CCCCC1` (single isomer, unassigned) [Example 198], for which the 50% effective concentration (EC50) was under 10 nM under setting [1] and under 10 nM under setting [3].

With `CCC[C@@H](NC(=O)c1ccc(-c2cc(Cl)ccc2-c2nc3ccccc3[nH]2)c(C(=O)OC)c1)c1ccccc1` [Example 43, methyl 2′-(1H-1,3-benzodiazol-2-yl)-5′-chloro-4-{[(1R)-1-phenylbutyl]carbamoyl}-[1,1′-biphenyl]-2-carboxylate], the EC50 is, setting by setting: under setting [1], 101 to 500 nM; under setting [4], 101 to 500 nM.

On to `CCC[C@@H](NC(=O)c1ccc(-c2cc(Cl)ccc2-c2nc3ncncc3[nH]2)c(C(=O)O)c1)c1ccccc1` [Example 29, 5′-chloro-4-{[(1R)-1-phenylbutyl]carbamoyl}-2′-(7H-purin-8-yl)-[1,1′-biphenyl]-2-carboxylic acid], for which the concentration for a half-maximal effect (EC50) reads like this: under setting [1], 10 to 100 nM; under setting [4], 10 to 100 nM.

As for `CCC[C@@H](NC(=O)c1ccc(-c2c(Cl)cccc2-c2nc(C)c(-c3ccccc3)[nH]2)c(C(=O)O)c1)c1ccccc1` (atropisomer, axis not shown) [Example 106, (S)-2′-chloro-6′-(4-methyl-5-phenyl-1H-imidazol-2-yl)-4-{[(1R)-1-phenylbutyl]carbamoyl}-[1,1′-biphenyl]-2-carboxylic acid], the EC50 under setting [2] is 10 to 100 nM.

In the case of `CCC[C@@H](NC(=O)c1ccc(-c2c(Cl)cccc2-c2nc3cc(OC(C)=O)ccc3[nH]2)c(C(=O)O)c1)c1ccccc1` (atropisomer, axis not shown) [Example 136, (S)-2′-[5-(acetyloxy)-1H-1,3-benzodiazol-2-yl]-6′-chloro-4-{[(1R)-1-phenylbutyl]carbamoyl}-[1,1′-biphenyl]-2-carboxylic acid], under setting [2], the EC50 was in the range of 101 to 500 nM.

Consider `COCCNC(=O)c1ccc(-c2c(Cl)cccc2-c2nc3cc(F)c(OC)cc3[nH]2)c(C(=O)O)c1` [Example 111, (S)-2′-chloro-6′-(5-fluoro-6-methoxy-1H-1,3-benzodiazol-2-yl)-4-[(2-methoxyethyl)carbamoyl]-[1,1′-biphenyl]-2-carboxylic acid], for which the concentration giving a half-maximal response (EC50) under setting [2] was under 10 nM.

Regarding `COc1cc2[nH]c(-c3cccc(Cl)c3-c3ccc(C(=O)N4CCN(C)CC4)cc3C(=O)O)nc2cc1F` [Example 118, (S)-2′-chloro-6′-(5-fluoro-6-methoxy-1H-1,3-benzodiazol-2-yl)-4-(4-methylpiperazine-1-carbonyl)-[1,1′-biphenyl]-2-carboxylic acid], the concentration for a half-maximal effect (EC50) reads like this: under setting [1], 10 to 100 nM; under setting [2], 10 to 100 nM.

With `CCC[C@@H](NC(=O)c1ccc(-c2c(Cl)cccc2-c2nc3ccc(F)c(F)c3[nH]2)c(C(=O)O)c1)c1ccccc1` (atropisomer, axis not shown) [Example 88, (S)-2′-chloro-6′-(6,7-difluoro-1H-1,3-benzodiazol-2-yl)-4-{[(1R)-1-phenylbutyl]carbamoyl}-[1,1′-biphenyl]-2-carboxylic acid], the EC50 under setting [2] is under 10 nM.

For the molecule `C[C@@H](NC(=O)c1ccc(-c2cc(Cl)ccc2-c2nc3ccccc3[nH]2)c(C(=O)O)c1)c1cccc(Cl)c1` [Example 72, 2′-(1H-1,3-benzodiazol-2-yl)-5′-chloro-4-{[(1R)-1-(3-chlorophenyl)ethyl]carbamoyl}-[1,1′-biphenyl]-2-carboxylic acid], the concentration for a half-maximal effect (EC50) was 10 to 100 nM under setting [1] and 10 to 100 nM under setting [4].

With `CCC[C@@H](NC(=O)c1ccc(-c2c(Cl)cccc2-c2nc3c(OC)ccc(OC)c3[nH]2)c(C(=O)O)c1)c1ccccc1` (atropisomer, axis not shown) [Example 98, (S)-2′-chloro-6′-(4,7-dimethoxy-1H-1,3-benzodiazol-2-yl)-4-{[(1R)-1-phenylbutyl]carbamoyl}-[1,1′-biphenyl]-2-carboxylic acid], the EC50 under setting [2] was in the range of 10 to 100 nM.

For the molecule `CCC[C@H](NC(=O)c1ccc(-c2c(Cl)cccc2-c2nc3cc(OC)c(F)cc3[nH]2)c(C(=O)O)c1)c1ccc(F)cc1` (single isomer, unassigned) [Example 233], the half-maximal effective concentration (EC50) under setting [1] is under 10 nM and the EC50 under setting [3] is under 10 nM.

Turning to `CCC(NC(=O)c1ccc(-c2cc(Cl)ccc2-c2nc3ccccc3[nH]2)c(C(=O)O)c1)c1ccncc1` (racemic) [Example 214, 2′-(1H-1,3-benzodiazol-2-yl)-5′-chloro-4-{[1-(pyridin-4-yl)propyl]carbamoyl}-[1,1′-biphenyl]-2-carboxylic acid], the concentration for a half-maximal effect (EC50) lay in the range of 10 to 100 nM under setting [1] and 10 to 100 nM under setting [3].

As to `CCC[C@@H](NC(=O)c1ccc(-c2cccc(F)c2-c2nc3ccccc3[nH]2)c(C(=O)O)c1)c1ccccc1` [Example 55, 2′-(1H-1,3-benzodiazol-2-yl)-3′-fluoro-4-{[(1R)-1-phenylbutyl]carbamoyl}-[1,1′-biphenyl]-2-carboxylic acid], the EC50 is, setting by setting: under setting [1], 101 to 500 nM; under setting [4], 101 to 500 nM.

Regarding `CCC[C@@H](NC(=O)c1ccc(-c2cc(Cl)ccc2-c2nc3cc4c(cc3[nH]2)OCO4)c(C(=O)O)c1)c1ccccc1` [Example 26, 5′-chloro-2′-{4,6-dioxa-10,12-diazatricyclo[7.3.0.0^3,^7]dodeca-1(9),2,7,10-tetraen-11-yl}-4-{[(1R)-1-phenylbutyl]carbamoyl}-[1,1′-biphenyl]-2-carboxylic acid], the 50% effective concentration (EC50) reads like this: under setting [1], 10 to 100 nM; under setting [4], 10 to 100 nM.

With `COC(=O)c1cc(C(=O)N[C@H](c2ccc(Cl)cc2)C2CC2)ccc1-c1c(Cl)cccc1-c1nc2cc(OC)c(F)cc2[nH]1` (single isomer, unassigned) [Example 204], the concentration for a half-maximal effect (EC50) reads like this: under setting [1], 101 to 500 nM; under setting [3], 101 to 500 nM.

`CCC[C@@H](NC(=O)c1ccc(-c2cc(Cl)ccc2-c2nc3cc(OC)ccc3[nH]2)c(C(=O)O)c1)c1ccccc1` [Example 1, (R)-5′-Chloro-2′-(5-methoxy-1H-benzo[d]imidazol-2-yl)-4-((1-phenylbutyl)carbamoyl)-[1,1′-biphenyl]-2-carboxylic acid]: the half-maximal effective concentration (EC50) reads like this: under setting [1], under 10 nM; under setting [4], under 10 nM.

As to `CCC[C@H](NC(=O)c1ccc(-c2c(Cl)cccc2-c2nc3ccccc3[nH]2)c(C(=O)O)c1)c1ccccc1OC` (single isomer, unassigned) [Example 221], the 50% effective concentration (EC50) runs as follows: under setting [1], under 10 nM; under setting [3], under 10 nM.

`CCC[C@@H](NC(=O)c1ccc(-c2cc(C(F)(F)F)ccc2-c2nc3ccccc3[nH]2)c(C(=O)O)c1)c1ccccc1` [Example 51, 2′-(1H-1,3-benzodiazol-2-yl)-4-{[(1R)-1-phenylbutyl]carbamoyl}-5′-(trifluoromethyl)-[1,1′-biphenyl]-2-carboxylic acid]: the EC50 is, setting by setting: under setting [1], under 10 nM; under setting [4], under 10 nM.

As to `CCC[C@@H](NC(=O)c1ccc(-c2c(Cl)cccc2-c2ncc(-c3ccncc3)[nH]2)c(C(=O)O)c1)c1ccccc1` (atropisomer, axis not shown) [Example 107, (S)-2′-chloro-4-{[(1R)-1-phenylbutyl]carbamoyl}-6′-[5-(pyridin-4-yl)-1H-imidazol-2-yl]-[1,1′-biphenyl]-2-carboxylic acid], under setting [2], the EC50 was in the range of 10 to 100 nM.

Consider `O=C(N[C@H](CN1CCOCC1)c1ccccc1)c1ccc(-c2c(Cl)cccc2-c2nc3ccccc3[nH]2)c(C(=O)O)c1` (atropisomer, axis not shown) [Example 156, (S)-2′-(1H-1,3-benzodiazol-2-yl)-6′-chloro-4-{[(1S)-2-(morpholin-4-yl)-1-phenylethyl]carbamoyl}-[1,1′-biphenyl]-2-carboxylic acid], for which the EC50 under setting [1] was under 10 nM and the 50% effective concentration (EC50) under setting [2] is under 10 nM.

Turning to `COC[C@@H](NC(=O)c1ccc(-c2ccccc2-c2nc3cc(OC)ccc3[nH]2)c(C(=O)O)c1)c1ccccc1` [Example 64, 4-{[(1S)-2-methoxy-1-phenylethyl]carbamoyl}-2′-(5-methoxy-1H-1,3-benzodiazol-2-yl)-[1,1′-biphenyl]-2-carboxylic acid], the EC50 was under 10 nM under setting [1] and under 10 nM under setting [4].

For `CCC[C@@H](NC(=O)c1ccc(-c2cc(Cl)ccc2-c2nc3cc(C(C)(C)C)ccc3[nH]2)c(C(=O)O)c1)c1ccccc1` [Example 19, 2′-(5-tert-butyl-1H-1,3-benzodiazol-2-yl)-5′-chloro-4-{[(1R)-1-phenylbutyl]carbamoyl}-[1,1′-biphenyl]-2-carboxylic acid], the EC50 was under 10 nM under setting [1] and under 10 nM under setting [4].
